In ChEMBL document CHEMBL4308853, “Design, Synthesis, and Pharmacological Evaluation of Novel β2/3 Subunit-Selective γ-Aminobutyric Acid Type A (GABAA) Receptor Modulators” (J Med Chem, 2018):
The source made the active and inactive calls.

Key:
[1] = target: T1, GABA-A receptor; alpha-1/beta-3/gamma-2 (Homo sapiens, UniProt P14867+P18507+P28472); test: Positive allosteric modulation of GABA-A alpha1beta3gamma2S receptor (unknown origin) expressed in Xenopus laevis oocytes assessed as increase in GABA-induced chloride current after 15 mins at -70 mV holding potential by two-microelectrode voltage clamp method; assay type: cell-based
T1 sequence (P14867 whole entry): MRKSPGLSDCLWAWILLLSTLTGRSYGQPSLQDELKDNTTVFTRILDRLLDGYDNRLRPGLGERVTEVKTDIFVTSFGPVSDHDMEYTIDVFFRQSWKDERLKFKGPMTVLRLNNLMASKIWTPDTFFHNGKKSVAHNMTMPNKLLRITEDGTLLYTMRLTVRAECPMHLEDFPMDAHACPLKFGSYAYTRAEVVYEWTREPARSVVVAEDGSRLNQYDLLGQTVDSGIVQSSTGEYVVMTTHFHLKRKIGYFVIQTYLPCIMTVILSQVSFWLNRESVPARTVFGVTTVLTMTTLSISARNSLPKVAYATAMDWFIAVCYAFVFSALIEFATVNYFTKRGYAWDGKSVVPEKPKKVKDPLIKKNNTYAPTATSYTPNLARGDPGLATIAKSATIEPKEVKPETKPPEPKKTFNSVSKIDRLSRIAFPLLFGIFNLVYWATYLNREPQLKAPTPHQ
T1 sequence (P18507 whole entry): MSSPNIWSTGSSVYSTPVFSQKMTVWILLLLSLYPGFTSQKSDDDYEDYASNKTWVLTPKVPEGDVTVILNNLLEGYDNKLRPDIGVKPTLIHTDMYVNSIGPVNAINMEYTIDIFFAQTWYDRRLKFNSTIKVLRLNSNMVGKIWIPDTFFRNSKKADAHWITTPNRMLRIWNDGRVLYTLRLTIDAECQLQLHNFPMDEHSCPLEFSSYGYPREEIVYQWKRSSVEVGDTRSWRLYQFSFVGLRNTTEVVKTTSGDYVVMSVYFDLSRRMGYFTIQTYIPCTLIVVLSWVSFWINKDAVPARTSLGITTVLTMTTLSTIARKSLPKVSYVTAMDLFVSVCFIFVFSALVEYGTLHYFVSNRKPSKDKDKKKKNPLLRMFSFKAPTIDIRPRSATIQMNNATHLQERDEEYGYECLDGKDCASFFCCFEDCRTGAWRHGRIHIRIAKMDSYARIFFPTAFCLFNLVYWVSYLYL
T1 sequence (P28472 whole entry): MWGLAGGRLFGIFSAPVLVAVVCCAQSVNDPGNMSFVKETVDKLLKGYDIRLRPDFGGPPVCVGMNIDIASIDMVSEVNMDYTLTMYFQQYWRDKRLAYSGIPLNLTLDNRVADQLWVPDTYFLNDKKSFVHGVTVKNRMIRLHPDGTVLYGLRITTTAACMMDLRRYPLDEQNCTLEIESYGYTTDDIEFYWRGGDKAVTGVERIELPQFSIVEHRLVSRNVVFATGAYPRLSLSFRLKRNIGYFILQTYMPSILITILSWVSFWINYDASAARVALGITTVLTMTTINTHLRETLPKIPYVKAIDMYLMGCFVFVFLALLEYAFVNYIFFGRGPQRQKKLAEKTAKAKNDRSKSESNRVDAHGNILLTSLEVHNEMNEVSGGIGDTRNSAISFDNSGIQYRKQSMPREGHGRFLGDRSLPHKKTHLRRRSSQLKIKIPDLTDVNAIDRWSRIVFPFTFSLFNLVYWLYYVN

[2] = target: T2, GABA-A receptor; anion channel (Rattus norvegicus) (UniProt O09028+P15431+P18506+P18508+P19969+P20236+P23574+P23576+P28471+P28473+P30191+P62813+P63079+P63138+Q91ZM7+Q9ES14); test: Positive allosteric modulation of GABA-A receptor in Sprague-Dawley rat primary hippocampal neurons assessed as channel-mediated tonic current at 30 uM pretreated for 300 secs followed by BMI addition for 10 secs at -70 mV holding potential by patch-clamp method (reference value: -63 pA); assay type: protein-complex assay
Mus musculus [3] = test: Anticonvulsive activity in C57BL/6N mouse assessed as protection against 49 +/- 1.8 mg/kg pentylenetetrazole-induced seizures by measuring elevation in seizure threshold at 10 mg/kg, ip pretreated for 30 mins followed by pentylenetetrazole tail-vein infusion; assay type: functional, organism-based
[4] = target: T3, GABA-A receptor; alpha-1/beta-2/gamma-2 (Homo sapiens, UniProt P14867+P18507+P47870); test: Positive allosteric modulation of GABA-A alpha1beta2gamma2S receptor (unknown origin) expressed in Xenopus laevis oocytes assessed as increase in GABA-induced chloride current after 15 mins at -70 mV holding potential by two-microelectrode voltage clamp method; assay type: cell-based
T3 sequence (P14867 whole entry): T1 sequence (P14867 whole entry)
T3 sequence (P47870 whole entry): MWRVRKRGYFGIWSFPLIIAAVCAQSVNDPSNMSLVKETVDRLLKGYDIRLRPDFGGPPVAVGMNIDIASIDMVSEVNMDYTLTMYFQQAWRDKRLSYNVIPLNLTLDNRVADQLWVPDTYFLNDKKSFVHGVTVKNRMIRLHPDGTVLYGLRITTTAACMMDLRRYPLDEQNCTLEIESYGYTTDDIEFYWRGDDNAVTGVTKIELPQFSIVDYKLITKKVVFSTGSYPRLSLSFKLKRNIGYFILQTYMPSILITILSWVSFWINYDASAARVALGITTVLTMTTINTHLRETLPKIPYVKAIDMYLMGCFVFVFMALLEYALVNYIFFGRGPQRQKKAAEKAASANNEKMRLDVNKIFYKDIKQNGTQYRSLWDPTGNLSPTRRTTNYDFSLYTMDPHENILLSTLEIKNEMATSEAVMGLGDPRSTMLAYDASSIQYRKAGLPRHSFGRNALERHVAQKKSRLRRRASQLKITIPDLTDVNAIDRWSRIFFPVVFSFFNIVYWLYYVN
T3 sequence (P18507 whole entry): T1 sequence (P18507 whole entry)

[5] = target: T4, GABA A receptor alpha-1/beta-1/gamma-2 (Homo sapiens, UniProt P14867+P18505+P18507); test: Positive allosteric modulation of GABA-A alpha1beta1gamma2S receptor (unknown origin) expressed in Xenopus laevis oocytes assessed as increase in GABA-induced chloride current after 15 mins at -70 mV holding potential by two-microelectrode voltage clamp method; assay type: cell-based
T4 sequence (P14867 whole entry): T1 sequence (P14867 whole entry)
T4 sequence (P18507 whole entry): T1 sequence (P18507 whole entry)
T4 sequence (P18505 whole entry): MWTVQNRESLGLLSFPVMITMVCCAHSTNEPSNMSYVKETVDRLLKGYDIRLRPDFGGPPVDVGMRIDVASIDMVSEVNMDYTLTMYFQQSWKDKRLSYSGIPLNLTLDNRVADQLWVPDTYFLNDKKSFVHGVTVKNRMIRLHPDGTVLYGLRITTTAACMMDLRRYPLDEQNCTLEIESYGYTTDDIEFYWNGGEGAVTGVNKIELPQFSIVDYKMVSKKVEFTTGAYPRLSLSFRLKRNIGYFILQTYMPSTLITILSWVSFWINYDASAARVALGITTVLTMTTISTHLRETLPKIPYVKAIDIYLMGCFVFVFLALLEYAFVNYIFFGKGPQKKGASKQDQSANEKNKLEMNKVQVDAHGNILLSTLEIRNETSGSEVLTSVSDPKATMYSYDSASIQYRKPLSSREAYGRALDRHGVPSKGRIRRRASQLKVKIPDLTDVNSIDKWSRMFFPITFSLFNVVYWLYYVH

[6] = target: T4, GABA A receptor alpha-1/beta-1/gamma-2; test: Positive allosteric modulation of GABA-A alpha1beta1gamma2S receptor (unknown origin) expressed in Xenopus laevis oocytes assessed as increase in GABA-induced chloride current at 300 uM after 15 mins at -70 mV holding potential by two-microelectrode voltage clamp method relative to control; assay type: cell-based; details: 0.25 h
[7] = target: GABA-A receptor; alpha-1/beta-3/gamma-2 (Homo sapiens, UniProt P14867+P18507+P28472, N265S); test: Positive allosteric modulation of GABA-A alpha1beta3(N265S)gamma2S mutant receptor (unknown origin) expressed in Xenopus laevis oocytes assessed as increase in GABA-induced chloride current after 15 mins at -70 mV holding potential by two-microelectrode voltage clamp method; assay type: cell-based
[8] = target: GABA A receptor alpha-1/beta-1/gamma-2 (Homo sapiens, UniProt P14867+P18505+P18507, S290N); test: Positive allosteric modulation of GABA-A alpha1beta1(S290N)gamma2S mutant receptor (unknown origin) expressed in Xenopus laevis oocytes assessed as increase in GABA-induced chloride current after 15 mins at -70 mV holding potential by two-microelectrode voltage clamp method; assay type: cell-based
[9] = target: GABA-A receptor; alpha-1/beta-3/gamma-2 (Homo sapiens, UniProt P14867+P18507+P28472, F289S); test: Positive allosteric modulation of GABA-A alpha1beta3(F289S)gamma2S mutant receptor (unknown origin) expressed in Xenopus laevis oocytes assessed as increase in GABA-induced chloride current after 15 mins at -70 mV holding potential by two-microelectrode voltage clamp method; assay type: cell-based
Oocyte = test: Induction of current in Xenopus laevis oocytes at 10 to 100 uM after 5 mins by two-microelectrode voltage clamp method; assay type: cell-based
[10] = target: T2, GABA-A receptor; anion channel (Rattus norvegicus); test: Positive allosteric modulation of GABA-A receptor in Sprague-Dawley rat primary hippocampal neurons assessed as miniature inhibitory postsynaptic current mean frequency at 10 uM for 300 secs at -70 mV holding potential by patch-clamp method; assay type: protein-complex assay; parameters: scale not given: the % may be the effect or the level left
[11] = target: T2, GABA-A receptor; anion channel (Rattus norvegicus); test: Positive allosteric modulation of GABA-A receptor in Sprague-Dawley rat primary hippocampal neurons assessed as miniature inhibitory postsynaptic current amplitude at 10 uM for 300 secs at -70 mV holding potential by patch-clamp method; assay type: protein-complex assay; parameters: scale not given: the % may be the effect or the level left
[12] = target: T2, GABA-A receptor; anion channel (Rattus norvegicus); test: Positive allosteric modulation of GABA-A receptor in Sprague-Dawley rat primary hippocampal neurons assessed as prolongation of miniature inhibitory postsynaptic current decay time at 10 uM for 300 secs at -70 mV holding potential by patch-clamp method; assay type: protein-complex assay; parameters: scale not given: the % may be the effect or the level left
[13] = target: T2, GABA-A receptor; anion channel (Rattus norvegicus); test: Positive allosteric modulation of GABA-A receptor in Sprague-Dawley rat primary hippocampal neurons assessed as increase in channel-mediated tonic current at 10 uM for 300 secs at -70 mV holding potential by patch-clamp method; assay type: protein-complex assay
[14] = target: T2, GABA-A receptor; anion channel (Rattus norvegicus); test: Positive allosteric modulation of GABA-A receptor in Sprague-Dawley rat primary hippocampal neurons assessed as channel-mediated tonic current at 10 uM pretreated for 300 secs followed by BMI addition for 10 secs at -70 mV holding potential by patch-clamp method; assay type: protein-complex assay
Mus musculus [15] = test: Anticonvulsive activity in C57BL/6N mouse assessed as protection against 39.5 +/- 0.8 mg/kg pentylenetetrazole-induced seizures by measuring elevation in seizure threshold at 0.1 to 0.3 mg/kg, ip pretreated for 30 mins followed by pentylenetetrazole tail-vein infusion; assay type: functional, organism-based
Mus musculus [16] = test: Anticonvulsive activity in C57BL/6N mouse assessed as protection against 52.6 +/- 2.1 mg/kg pentylenetetrazole-induced seizures by measuring elevation in seizure threshold at 0.3 mg/kg, ip pretreated for 30 mins followed by pentylenetetrazole tail-vein infusion; assay type: functional, organism-based
[17] = target: Glutamate [NMDA] receptor (Homo sapiens) (UniProt Q05586+Q12879+Q13224+O15399+O60391+Q14957+Q8TCU5); test: Positive allosteric modulation of NMDA receptor (unknown origin) expressed in Xenopus laevis oocytes assessed as increase in NMDA-induced channel current at 10 to 100 uM at -70 mV holding potential by two-microelectrode voltage clamp method; assay type: cell-based
[18] = target: Transient receptor potential cation channel subfamily V member 1 (Homo sapiens) (UniProt Q8NER1); test: Agonist activity at TRPV1 receptor (unknown origin) expressed in Xenopus laevis oocytes assessed as increase in channel current at 10 to 100 uM at -70 mV holding potential by two-microelectrode voltage clamp method; assay type: cell-based
[19] = target: T5, Neuronal acetylcholine receptor; alpha4/beta2 (Homo sapiens) (UniProt P17787+P43681); test: Positive allosteric modulation of alpha4beta2 nAChR (unknown origin) expressed in Xenopus laevis oocytes assessed as increase in acetylcholine-induced channel current at 10 to 100 uM at -70 mV holding potential by two-microelectrode voltage clamp method; assay type: cell-based
[20] = target: Metabotropic glutamate receptor 2 (Homo sapiens) (UniProt Q14416); test: Positive allosteric modulation of mGluR2 (unknown origin) expressed in Xenopus laevis oocytes assessed as increase in glutamate-induced channel current at 10 to 100 uM at -70 mV holding potential by two-microelectrode voltage clamp method; assay type: cell-based
[21] = target: T5, Neuronal acetylcholine receptor; alpha4/beta2 (Homo sapiens); test: Negative allosteric modulation of alpha4beta2 nAChR (unknown origin) expressed in Xenopus laevis oocytes assessed as decrease in acetylcholine-induced channel current at 100 uM at -70 mV holding potential by two-microelectrode voltage clamp method relative to control; assay type: cell-based

Chain of Transient receptor potential cation channel subfamily V member 1 (Homo sapiens) (Q8NER1 whole entry): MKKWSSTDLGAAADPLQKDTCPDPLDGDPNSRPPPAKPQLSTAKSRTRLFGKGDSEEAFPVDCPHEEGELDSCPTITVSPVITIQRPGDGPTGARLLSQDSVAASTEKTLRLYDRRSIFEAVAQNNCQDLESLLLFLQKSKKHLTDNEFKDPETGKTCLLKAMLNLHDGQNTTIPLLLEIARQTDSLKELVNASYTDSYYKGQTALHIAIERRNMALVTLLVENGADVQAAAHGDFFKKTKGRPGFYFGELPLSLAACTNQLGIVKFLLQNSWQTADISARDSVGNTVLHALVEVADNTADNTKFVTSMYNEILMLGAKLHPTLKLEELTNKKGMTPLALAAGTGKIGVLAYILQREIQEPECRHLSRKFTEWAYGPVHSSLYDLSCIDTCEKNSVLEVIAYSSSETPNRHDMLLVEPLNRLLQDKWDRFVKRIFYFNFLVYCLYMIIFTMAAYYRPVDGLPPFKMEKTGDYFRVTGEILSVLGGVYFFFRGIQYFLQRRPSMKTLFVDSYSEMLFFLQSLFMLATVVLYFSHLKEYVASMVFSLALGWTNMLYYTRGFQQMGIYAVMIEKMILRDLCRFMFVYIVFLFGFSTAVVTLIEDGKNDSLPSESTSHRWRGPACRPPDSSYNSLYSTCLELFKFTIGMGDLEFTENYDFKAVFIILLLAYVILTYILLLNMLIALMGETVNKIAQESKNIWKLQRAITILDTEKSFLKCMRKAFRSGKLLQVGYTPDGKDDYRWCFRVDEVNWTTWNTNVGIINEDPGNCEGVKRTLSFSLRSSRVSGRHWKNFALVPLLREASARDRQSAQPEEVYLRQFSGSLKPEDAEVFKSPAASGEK
Chain of Metabotropic glutamate receptor 2 (Homo sapiens) (Q14416 19-872 limits assumed): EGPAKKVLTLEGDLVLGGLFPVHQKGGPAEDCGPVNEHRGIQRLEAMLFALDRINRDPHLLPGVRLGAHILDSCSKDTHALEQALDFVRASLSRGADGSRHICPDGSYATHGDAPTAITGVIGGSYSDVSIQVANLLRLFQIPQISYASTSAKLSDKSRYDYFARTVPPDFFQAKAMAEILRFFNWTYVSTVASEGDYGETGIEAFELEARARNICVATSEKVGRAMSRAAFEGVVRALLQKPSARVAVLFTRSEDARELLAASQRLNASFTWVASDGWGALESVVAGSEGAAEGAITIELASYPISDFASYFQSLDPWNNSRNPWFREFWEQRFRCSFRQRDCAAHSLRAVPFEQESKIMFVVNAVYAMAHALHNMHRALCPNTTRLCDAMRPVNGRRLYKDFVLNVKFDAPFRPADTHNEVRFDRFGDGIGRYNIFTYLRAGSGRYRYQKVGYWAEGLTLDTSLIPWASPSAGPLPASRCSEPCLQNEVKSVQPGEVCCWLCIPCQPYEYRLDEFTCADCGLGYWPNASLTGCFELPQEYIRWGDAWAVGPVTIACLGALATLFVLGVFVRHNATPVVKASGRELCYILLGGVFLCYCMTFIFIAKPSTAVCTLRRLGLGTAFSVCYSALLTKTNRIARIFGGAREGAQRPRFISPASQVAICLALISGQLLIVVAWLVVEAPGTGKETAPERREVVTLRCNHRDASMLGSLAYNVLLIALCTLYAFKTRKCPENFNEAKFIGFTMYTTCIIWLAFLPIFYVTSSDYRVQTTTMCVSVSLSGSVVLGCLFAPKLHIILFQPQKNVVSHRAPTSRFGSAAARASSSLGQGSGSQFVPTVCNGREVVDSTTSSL

## CC1=C2[C@H](/C=C(\C)C(=O)O)CC[C@@H](C)[C@H]2CC1 [VALERENIC ACID]
[1]
  EC50: 19 µM
[2]
  Activity: -115 pA
Mus musculus [3]
  Activity: Active

## CC(=C(C#N)C(N)=O)c1ccc(Cl)cc1Cl (mixture of isomers)
[1]
  EC50: 67 µM

## C/C(=C(/C#N)C(N)=O)c1ccc(Cl)cc1Cl
[1]
  EC50: 55 µM
[4]
  EC50: 64 µM

## C/C(=C/C#N)c1ccc(Cl)cc1Cl
[1]
  EC50: 13 µM
[5]
  EC50: 148 µM
[6]
  Emax at 300 µM: 883%
[4]
  EC50: 15 µM
[7]
  EC50: 103 µM
[8]
  EC50: 10 µM
[9]
  EC50: 171 µM
Oocyte
  Activity: Non-Toxic
[10]
  Activity: 78%
[11]
  Activity: 97%
[12]
  Activity: 213%
[13]
  Activity: Active
[14]
  Activity: -38 pA
Mus musculus [15]
  Activity: Active
Mus musculus [16]
  Activity: Active
[17]
  Activity: inactive
[18]
  Activity: inactive
[19]
  Activity: inactive
[20]
  Activity: inactive
[21]
  inhibition: 70%

## CC(=CC#N)c1ccc(C)cc1Cl (mixture of isomers)
[1]
  EC50: 41 µM
[5]
  EC50: 271 µM
[4]
  EC50: 41 µM

## C/C(=C\C#N)c1ccc(Cl)cc1Cl
[1]
  EC50: 100 µM
